Patent US9326513B2, “Fungicidal compositions” (Syngenta Participations AG, priority 2011, dated 2016)

Key:
Assay type in all cases: in vivo
Conditions in all cases: foliar, compared to untreated control leaf disks, read-out: disease control
[1] = tested on: Pyrenophora teres; assay: Pyrenophora teres / barley / leaf disc preventative (net blotch)
Text: Pyrenophora teres/Barley/Leaf Disc Preventative (Net Blotch) Barley leaf segments cv. Hasso were placed on agar in a multiwell plate (24-well format) and sprayed with the formulated test compound diluted in water. The leaf segments were inoculated with a spore suspension of the fungus 2 days after application.

[2] = tested on: Puccinia recondita f. sp. tritici; assay: Puccinia recondita f. sp. tritici / wheat / leaf disc curative (brown rust)
Experimental: Puccinia recondita f. sp. tritici/Wheat/Leaf Disc Curative (Brown Rust) Wheat leaf segments cv. Kanzler are placed on agar in multiwell plates (24-well format). The leaf segments are inoculated with a spore suspension of the fungus. Plates were stored in darkness at 19° C. and 75% rh. The formulated test compound diluted in water was applied 1 day after inoculation.

[3] = tested on: Puccinia recondita f. sp. tritici; assay: Puccinia recondita f. sp. tritici / wheat / leaf disc preventative (brown rust)
Text: Puccinia recondita f. sp. tritici/Wheat/Leaf Disc Preventative (Brown Rust) Wheat leaf segments cv. Kanzler were placed on agar in multiwell plates (24-well format) and sprayed with the formulated test compound diluted in water. The leaf disks were inoculated with a spore suspension of the fungus 1 day after application.

[4] = tested on: Blumeria graminis f. sp. tritici (Erysiphe graminis f. sp. tritici); assay: Blumeria graminis f. sp. tritici / wheat / leaf disc preventative (powdery mildew on wheat)
Outline: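 Preventative leaf-disc test: compound (200 ppm) was sprayed onto cv. Kanzler wheat segments, which were dusted with conidia from infected plants 1 day after application. After incubation at 20° C and 60% rh, disease control relative to untreated segments was rated 6-8 days after application.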

Measured: pest or weed control at 200 ppm

CCc1cc(/N=C/N(C)CC)c(C)nc1O[C@H]1CC[C@@H](C(C)C)CC1 [Q.251]
≥ 50%: all assays above

C=Cc1cccc(C(C)Oc2nc(C)c(/N=C/N(C)CC)cc2Br)c1 (stereo not drawn) [Q.278]
≥ 50%: all assays above

CCN(C)/C=N/c1cc(Br)c(O[C@H](C)c2cc(F)cc(F)c2)nc1C [Q.261]
≥ 50%: all assays above

CCN(C)/C=N/c1cc(Br)c(OC2CCc3ccc(OC)cc3C2)nc1C (stereo not drawn) [Q.018]
≥ 50%: all assays above

CCN(C)/C=N/c1cc(Br)c(OC2CCN(C(C)=O)CC2)nc1C [Q.160]
≥ 50%: all assays above

CCCN(C)/C=N/c1cc(Br)c(OC(C)c2cc(F)cc(F)c2)nc1C (stereo not drawn) [Q.191]
≥ 50%: all assays above

CCN(C)/C=N/c1cc(Br)c(OCCCC(C)F)nc1C (stereo not drawn) [Q.052]
≥ 50%: all assays above

CCN(C)/C=N/c1cc(Br)c(OCc2cc(F)cc(F)c2)nc1C [Q.105]
≥ 50%: all assays above

CCN(C)/C=N/c1cc(Br)c(OCC2CCCc3ccccc32)nc1C (stereo not drawn) [Q.226]
≥ 50%: all assays above

CCC(C)Oc1nc(C)c(/N=C/N(C)CC)cc1Br (stereo not drawn) [Q.389]
≥ 50%: all assays above

CCN(C)/C=N/c1cc(Br)c(OC2CCC(F)(F)CC2)nc1C [Q.375]
≥ 50%: all assays above

CCN(C)/C=N/c1cc(C(F)F)c(O[C@H]2CC[C@@H](C(C)C)CC2)nc1C [Q.247]
≥ 50%: all assays above

CCN(C)/C=N/c1cc(OC)c(OC(C)c2cc(F)cc(F)c2)nc1C (stereo not drawn) [Q.214]
≥ 50%: all assays above

CCC(Oc1ccc(/N=C/N(C)C(C)C)c(C)n1)c1cc(C)cc(C)c1 (stereo not drawn) [Q.361]
≥ 50%: all assays above

CCN(C)/C=N/c1cc(Br)c(OC(C)(C)c2cc(C)no2)nc1C [Q.076]
≥ 50%: all assays above

CCN(C)/C=N/c1cc(C2CC2)c(OC2Cc3cc(OC)c(OC)cc3C2)nc1C [Q.069]
≥ 50%: all assays above

CCN(C)/C=N/c1cc(Br)c(OC2CCC(C)CC2)nc1C (stereo not drawn) [Q.141]
≥ 50%: all assays above

CCN(C)/C=N/c1cc(Br)c(OCCc2ccccc2)nc1C [Q.099]
≥ 50%: all assays above

CCCc1cccc(COc2nc(C)c(/N=C/N(C)CC)cc2Br)c1 [Q.346]
≥ 50%: all assays above

CCN(C)/C=N/c1cc(Br)c(OC(C)Cc2cc(F)cc(F)c2)nc1C (stereo not drawn) [Q.217]
≥ 50%: all assays above

CCN(C)/C=N/c1cc(Br)c(OC(C)c2ccccc2Cl)nc1C (stereo not drawn) [Q.301]
≥ 50%: all assays above

CCN(C)/C=N/c1cc(Br)c(OCC(C)c2ccccc2)nc1C (stereo not drawn) [Q.223]
≥ 50%: all assays above

CCN(C)/C=N/c1cc(Br)c(OC2CCc3c(cccc3OC)C2)nc1C (stereo not drawn) [Q.019]
≥ 50%: all assays above

CCN(C)/C=N/c1cc(Br)c(OCC2CCCC(C#N)C2)nc1C (stereo not drawn) [Q.032]
≥ 50%: all assays above

CCN(C)/C=N/c1cc(Br)c(OC(C)Cc2ccccc2C)nc1C (stereo not drawn) [Q.353]
≥ 50%: all assays above

CCN(C)/C=N/c1cc(C)c(OC(C)c2cc(F)cc(F)c2)nc1C (stereo not drawn) [Q.184]
≥ 50%: all assays above

CCN(C)/C=N/c1cc(Br)c(OC(C)Cc2cc(Cl)cc(Cl)c2)nc1C (stereo not drawn) [Q.221]
≥ 50%: all assays above

CCN(C)/C=N/c1cc(Br)c(OC2Cc3cccc(C)c3C2)nc1C (stereo not drawn) [Q.200]
≥ 50%: all assays above

CCN(C)/C=N/c1cc(Br)c(OC2Cc3cc(C)c(C)cc3C2)nc1C [Q.197]
≥ 50%: all assays above

CCN(C)/C=N/c1cc(Br)c(OCc2snc(-c3ccc(F)cc3)c2Cl)nc1C [Q.124]
≥ 50%: all assays above

CCN(C)/C=N/c1cc(Br)c(OCc2ccccc2)nc1C [Q.095]
≥ 50%: all assays above

CCN(C)/C=N/c1cc(Br)c(OCCc2cccc(F)c2)nc1C [Q.116]
≥ 50%: all assays above

CCN(C)/C=N/c1cc(Br)c(OCCCC(C)O)nc1C (stereo not drawn) [Q.035]
≥ 50%: all assays above

CCN(C)/C=N/c1cc(-c2ccccc2)c(OC2CC=CC2)nc1C [Q.262]
≥ 50%: all assays above

CCN(C)/C=N/c1cc(Br)c(OC2CCC(=O)C=C2C)nc1C (stereo not drawn) [Q.282]
≥ 50%: all assays above

C=C(C)CCCOc1nc(C)c(/N=C/N(C)CC)cc1Br [Q.120]
≥ 50%: all assays above

C/C=C(\C)CCCOc1nc(C)c(/N=C/N(C)CC)cc1Br [Q.133]
≥ 50%: all assays above

CCN(C)/C=N/c1cc(Br)c(OC2CCC(C)C2)nc1C (stereo not drawn) [Q.167]
≥ 50%: all assays above

CCN(C)/C=N/c1cc(Br)c(OC2CCc3cc(F)ccc3C2)nc1C (stereo not drawn) [Q.025]
≥ 50%: all assays above

CCN(C)/C=N/c1cc(C)c(OCCCC(C)C)nc1C [Q.007]
≥ 50%: all assays above

CCN(C)/C=N/c1cc(Br)c(OCCc2ccc(Br)cc2)nc1C [Q.012]
≥ 50%: all assays above

CCN(C)/C=N/c1cc(Br)c(OCc2cccnc2)nc1C [Q.106]
≥ 50%: all assays above
